Columns and labels:
[1] = Appearance of ibuprofen mixtures in PEG 400 with sodium or potassium hydroxide (visual inspection); format: physicochemical
Experimental: Mixtures were prepared in 10 g quantities by dispersing the acidic pharmaceutical agent in polyethylene glycol or polyethylene glycol and glycerin or polyethylene glycol and polyvinylpyrrolidone or polyethylene glycol, glycerin, and polyvinylpyrrolidone. Aqueous solutions of hydroxide were then added.

[2] = Solubility of the basic drug thioridazine in PEG 400 in presence and absence of hydrogen ion

Row | Appearance (Room temp) ([1]; 200 mg in 200 mg PEG 400, NaOH 0.1 M/E, water 1.5 wt %, slight ppt) | Appearance (Room temp) ([1]; 200 mg in 200 mg PEG 400, NaOH 0.2 M/E, water 2.8 wt %) | Appearance (Room temp) ([1]; 200 mg in 200 mg PEG 400, NaOH 0.3 M/E, water 4.1 wt %) | Appearance (Room temp) ([1]; 200 mg in 200 mg PEG 400, NaOH 0.4 M/E, water 5.2 wt %) | Appearance (Room temp) ([1]; 200 mg in 200 mg PEG 400, NaOH 0.5 M/E, water 6.6 wt %, solid admixture) | precipitation in presence of sodium hydroxide ([1]; PEG 400, 0.5 or more mole equivalents NaOH) | precipitation in presence of potassium hydroxide ([1]; PEG 400, 1.0 mole equivalents KOH, even at 4° C.) | Compound | RESULT at 5° C. ([2]; FORMULA I, Hydrochloric Acid 0.0 mg) | RESULT at 5° C. ([2]; FORMULA II, Hydrochloric Acid 2.4 mg)
1 | Insoluble | Soluble | Soluble | Soluble | Insoluble | precipitation occurs | no precipitation occurs | CC(C)Cc1ccc(C(C)C(=O)O)cc1 (stereo not drawn) [Ibuprofen, ibuprofen] |  | 
2 |  |  |  |  |  |  |  | CSc1ccc2c(c1)N(CCC1CCCCN1C)c1ccccc1S2 (stereo not drawn) [Thioridazine, thioridazine] | INSOLUBLE | SOLUBLE
